PubChem BioAssay (NCI)
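48-hour exposure; five concentrations; linearly interpolated endpoints. Here, GI50 denotes the concentration required for 50% inhibition of growth. Definition used: TGI = concentration required for complete inhibition of growth.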

Legend:
Assay in all cases: NCI-60 cell line screen, 48 h
786-0 renal = test system: 786-0 renal
A498 renal = test system: A498 renal
A549 NSCLC = test system: A549 NSCLC
HL-60(TB) leukemia = test system: HL-60(TB) leukemia
HOP-62 NSCLC = test system: HOP-62 NSCLC
HT29 colon = test system: HT29 colon
MOLT-4 leukemia = test system: MOLT-4 leukemia
SF-268 CNS = test system: SF-268 CNS
SK-MEL-28 melanoma = test system: SK-MEL-28 melanoma
SK-MEL-5 melanoma = test system: SK-MEL-5 melanoma
MDA-MB-231 breast = test system: MDA-MB-231 breast
MDA-MB-435 = test system: MDA-MB-435
NCI-H522 lung = test system: NCI-H522 lung

| Structure (SMILES) | TGI (786-0 renal) [µM] | TGI (A498 renal) [µM] | TGI (A549 NSCLC) [µM] | TGI (HL-60(TB) leukemia) [µM] | TGI (HOP-62 NSCLC) [µM] | TGI (HT29 colon) [µM] | TGI (MOLT-4 leukemia) [µM] | TGI (SF-268 CNS) [µM] | TGI (SK-MEL-28 melanoma) [µM] | TGI (SK-MEL-5 melanoma) [µM] | TGI (MDA-MB-231 breast) [µM] | TGI (MDA-MB-435) [µM] | TGI (NCI-H522 lung) [µM] | GI50 (A549 NSCLC) [µM] | GI50 (MDA-MB-231 breast) [µM] | GI50 (SF-268 CNS) [µM] |
| --- | --- | --- | --- | --- | --- | --- | --- | --- | --- | --- | --- | --- | --- | --- | --- | --- |
| CCCCCCCCOCC(COC(=O)CCCCCCC)OC(=O)CCCCCCC (stereo not drawn) | > 100 | > 100 | > 100 | > 100 | > 100 | > 100 | > 100 | > 100 | > 100 | > 100 |  |  |  |  |  |  |
| CCOC(=O)C1(C/C=C\CBr)CCCC1=O (stereo not drawn) | > 100 | > 100 | > 100 |  | 56.7 | > 100 |  | > 100 | > 100 | > 100 | 84 | 57.2 | 46.8 |  |  |  |
| O=C(c1ccccc1)C1(Br)S(=O)(=O)OCCOS1(=O)=O | > 100 | > 100 | > 100 | > 100 | > 100 | > 100 | > 100 | > 100 | > 100 | > 100 |  |  | > 100 |  |  |  |
| c1cc(-c2ccc(-c3ccsc3)s2)cs1 | > 100 | > 100 | 64.5 | 67 | > 100 | > 100 | > 100 | > 100 |  | > 100 |  | > 100 | > 100 |  |  |  |
| N#Cc1sc2nc3ccccc3n2c1N | > 100 | > 100 | > 100 |  | > 100 | > 100 | > 100 | > 100 | > 100 | > 100 | > 100 | > 100 | > 100 |  |  |  |
| O=C(O)CCCc1ccc2c(c1)CC1(C2)Cc2cc3c(cc2C1)CCCC3 | 58.6 | 35.3 | 67 | 28.2 | 3.54 | 30.4 | 5.4 |  |  | 32.7 |  | 38 | 47 |  |  |  |
| CCOC(=O)C1S(=O)(=O)OCCOS1(=O)=O | > 100 |  | > 100 | > 100 | > 100 | > 100 | > 100 | > 100 | > 100 | > 100 |  |  | > 100 |  |  |  |
| C[C@@H]1CC[C@]2(C)C3(C)CC[C@]2(OC3=O)[C@@]12CC(c1ccoc1)OC2=O (stereo partly drawn) | 40.7 | > 100 | > 100 | 44.3 | > 100 | > 100 | 84.4 | > 100 | 66.3 | > 100 |  | 56.4 | 4.46 |  |  |  |
| CC(=O)NC1C(OCC(=O)NCCNc2ccc([N+](=O)[O-])c3[nH]c4ccccc4c(=O)c23)C(O)C(CO)OC1(C)OCc1ccccc1 (stereo not drawn) | > 100 | > 100 | > 100 |  | > 100 | > 100 | > 100 | > 100 |  | > 100 | > 100 | > 100 | > 100 |  |  |  |
| CC(C)(CN1CCCCC1)C(=O)/C=C/c1ccc(Br)cc1 | 4.72 | 5.8 | 7.9 | 5.83 | 9.82 | 12.6 | 6.87 | 7.08 | 11.7 | 12.6 |  |  | 3.98 |  |  |  |
| CCN1/C(=C/C#C/C(C)=C\c2sc3ccc(Cl)cc3[n+]2CC)Sc2ccc(Cl)cc21 | 15.1 |  | 22 |  | 29 | 14 |  | 21.4 | 26.5 | 5.26 | 19.7 | 13.7 | 6.02 |  |  |  |
| COC1(OC)CCc2c(sc3ncnc(Nc4cccc(Br)c4)c23)C1 | > 100 | > 100 | > 100 |  | > 100 | 45.1 | 41.5 | > 100 |  | > 100 | > 100 | > 100 | 30.3 |  |  |  |
| CCOC(=O)c1cn(CC)c(=O)n2c1nc1ccccc12 | > 100 | > 100 | > 100 |  | > 100 | > 100 | > 100 |  | > 100 | > 100 | > 100 | > 100 |  |  |  |  |
| C1CCC(N=C2N(C3CCCCC3)C(=NC3CCCCC3)N2C2CCCCC2)CC1 | > 100 |  | > 100 | > 100 | > 100 | > 100 | > 100 | > 100 | > 100 | > 100 |  |  | > 100 |  |  |  |
| O=C1c2ccccc2N2OC3(N4CCOCC4)CCCC3C12c1ccccc1 (stereo not drawn) | > 100 | > 100 | > 100 | > 100 | > 100 | > 100 | > 100 | > 100 | > 100 | > 100 |  |  | > 100 |  |  |  |
| COc1cc(C2c3cc4c(cc3OC(NN)C2C)OCO4)cc(OC)c1O (stereo not drawn) | > 100 |  | 53.5 | 5.32 |  |  |  | > 100 | 33.9 | 12.7 | 84.9 |  | 42.2 |  |  |  |
| CCOC(=O)/C(=C/c1ccccn1)C(=O)c1ccccc1 | 25.9 | 43.1 | 44.5 | 5.3 | 33 | 30.4 | 26 | 44 | 27.3 | 28.6 |  |  | 13.8 |  |  |  |
| NNC(=O)C(=O)NN=C(C(Cl)(Cl)CO)C(Cl)(Cl)CO | > 100 | > 100 | > 100 | 69.6 | > 100 | > 100 | 50.7 | > 100 | 97.9 | > 100 |  |  | 25 |  |  |  |
| CSC(=O)/C=C1\SS/C(=C\C(=O)SC)S1 | 4.03 | 21.5 | 19.6 |  | 20.4 | 7.03 | > 100 | 6.72 | 6.34 | 6.79 | 4.85 | 7.08 | 6.34 |  |  |  |
| COC(=O)[C@@H]1[C@@H]2NC(=S)N[C@@]1(C)Oc1ccccc12 | > 100 | > 100 |  |  | > 100 | > 100 | > 100 | > 100 | > 100 | > 100 | > 100 | 33.5 | > 100 |  |  |  |
| CC1(C)O[C@@H]2[C@@H](COC(C)(C)O[C@H]2C2SCCCS2)O1 | > 100 | > 100 | > 100 |  | > 100 | > 100 | > 100 | > 100 | > 100 | > 100 | > 100 | > 100 | > 100 |  |  |  |
| COc1ccc2ccccc2c1C1=NC(C)(C)CO1 | > 100 |  | > 100 | > 100 | > 100 | > 100 | > 100 | > 100 | > 100 | > 100 |  |  | > 100 |  |  |  |
| O=C(CCc1cc(O)cc(O)c1)NCCc1cc(O)cc(OCc2ccccc2)c1 | > 100 | > 100 | > 100 |  | > 100 | > 100 | 66.2 | > 100 | > 100 | 37.1 | > 100 | > 100 | > 100 |  |  |  |
| CC(=O)OC1COC(N2CCc3cc([N+](=O)[O-])ccc32)C(OC(C)=O)C1OC(C)=O (stereo not drawn) | > 100 | > 100 | > 100 |  | > 100 | > 100 | > 100 | > 100 | > 100 | > 100 |  |  | > 100 |  |  |  |
| COc1cc2nc(Cl)nc(NS(=O)(=O)c3cc4ccccc4s3)c2cc1OC | > 100 | 35.3 | > 100 |  | > 100 | 88.9 |  | > 100 | 0.11 | 37.9 | 71.7 | 54.5 | 74.6 |  |  |  |
| COC(=O)C(C(=O)C(=O)Nc1c(Cl)cc([N+](=O)[O-])cc1Cl)c1csc(-n2nc(C3=CCCCC3)cc2-c2ccccc2)n1 (stereo not drawn) | > 100 | > 100 | > 100 | > 100 | > 100 | > 100 | > 100 | > 100 |  |  |  |  | > 100 |  |  |  |
| C1CSCCSCCCS[C@@H]2CCCCC2SC1 (stereo partly drawn) | > 100 | > 100 | > 100 | > 100 | > 100 | > 100 |  | > 100 | > 100 | > 100 |  |  | > 100 |  |  |  |
| O=C1CC(c2cccc(Cl)c2)Nc2ccc(N3CCCC3)cc21 (stereo not drawn) | > 100 | > 100 | > 100 |  | > 100 | 0.331 |  | > 100 | > 100 | 0.087 | > 100 |  | 0.0677 | 0.0153 | 0.433 | 0.0417 |
| COc1ccc(-c2c(C3=NCCCN3)nnn2-c2ccccc2)cc1 | > 100 | > 100 | > 100 | > 100 | > 100 | > 100 | > 100 | > 100 | > 100 | > 100 |  |  | > 100 |  |  |  |
| O=C1CC(c2ccc(Cl)cc2)=Nc2ccccc2N1 | > 100 | > 100 | > 100 | 57.6 | > 100 | > 100 | > 100 | > 100 | > 100 | > 100 |  |  | > 100 |  |  |  |
